From patent US6780848B2, “Use of GPE to protect glial cells or non-dopaminergic cells from death from neural injury or disease” (NeuronZ, Ltd., priority 1993, dated 2004)

How the values were obtained:
[1] = system: hypoxic-ischemic injury, 21 day old Wistar rats; conditions: rat, in vivo, ip
Protocol: The objective of this study was to compare the effects of treatment with GPE to that of a vehicle given 2 hours after an hypoxic-ischemic injury. The dose range of 2 to 200 μg was chosen to span a range of systemic doses that are greater than that required centrally (see experiment 3).
Unilateral hypoxic-ischemic injury was induced in 21 day old, 45±5 g Wistar rats. The rats underwent unilateral carotid ligation under light halothane anaesthesia.
Following one hour recovery they were placed in an incubator at 34 deg C. 85±5% humidity for one hour before the injury. They were subjected to 1 min inhalation hypoxia (FiO2 8.0%) and then returned to room temperature (22 deg C.) and normoxia. […]
Surviving and dead neurons were discriminated using the thionin/acid fuchsin staining technique (Guan et al J Cereb Blood Flow Metab. 13:609-616 (1993). The results, in which the height of a point is given by the ratio as a percentage of live neurones in the CA1-2 region on the right side to the number on the left side are shown in FIG. 5. Column A is vehicle, column B is 2 μg of GPE, column C is 20 μg of GPE, and column D is 200 μg of GPE. In this figure, the P value (0.031) was calculated by a method using one way ANOVA comparing many groups after Arcsin transformation.

[2] = system: hypoxic-ischemic injury to one cerebral hemisphere, adult Wistar rats; assay: Experiment 1: IGF-1 and/or MK801 2 hours after unilateral hypoxic-ischemic injury, histology at 120 hours; assay type: in vivo, rat; conditions: treatment 2 hours after hypoxia, IGF-1 50 μg intraventricular, MK801 1 mg, controls 65%
Protocol: One carotid artery was ligated and the animal was subjected two hours later to a defined period of inhalational hypoxia. The degree, length of hypoxia, ambient temperature and humidity were defined to standardise the degree of damage. They were sacrificed five days later for histological analysis using stains (acid-fuchsin) specific for necrotic neurons.
Adult Wistar rats (68 280-320 g) were prepared under 3% halothane/O2 anaesthesia. The right side carotid artery was ligated. A guide cannula was placed on the dura 8.2 mm anterior from bregma and 1.4 mm from midline on the right. The rats were allowed to recover from anaesthesia for 1 hour and were then placed in an incubator with humidity 85±5% and temperature 34±0.5C. for 1 hour before hypoxia. Oxygen concentration was reduced and maintained at 6±0.2 02% hypoxia for 10 minutes. […] Fifty micrograms of IGF-1 or vehicle alone (0.1% BSA in 0.15M PBS (pH 7.3)) were given via intra-ventricular (IVC) infusion. […] The intraventricular injections of 50 μg IGF-1 or vehicle alone were made into the right lateral ventricle at 1 μl/minute under 1.5%-2% halothane anaesthetic. […] The presence of cortical infarction, defined as a region of tissue death or parenchymal pan-necrosis due to death of glia as well as neurons, was determined via light microscopy by an assessor who was blinded to the experimental groupings.

[3] = system: ischemic brain injury, late gestation fetal sheep; assay: Experiment 2: IGF-1 into lateral ventricle 2 hours after 30 minutes of brain ischemia in fetal sheep; assay type: in vivo
Description: The objective of this study was to compare the effects of treatment either with IGF-1 (see FIG. 2) and previously published work with the NMDA antagonist MK810 after an ischemic brain injury on postischernic seizures and neuronal losses in fetal sheep. (Tan et al Ann Neurol 32:677-682 (1992)).
The methods were those of an earlier study (Tan et al Ann Neurol 32:677-682 (1992)). Briefly, late gestation fetal sheep were chronically instrumented to record EEG, nuchal activity and blood pressure, and were then returned to the uterus. Cortical EEG activity, nuchal activity and blood pressure were recorded throughout he experiment and the fetal brain subjected to 30 minutes of ischemia. Two hours later they were treated by an infusion of either 1 μg IGF-1 (n=6) or vehicle (artificial CSF) (n=6) into the lateral ventricle. Five days later the brains were fixed and assessed for neuronal loss as described previously (Tan et al Ann Neurol 32:677-682 (1992)).
In all cases the vehicle is the left-hand column and the effects of 1 μg of IGF-1 is on the right.

[4] = system: ischemic brain injury, late gestation fetal sheep; conditions: ischemic model in fetal sheep; Tan et al Ann Neurol 32:677-682 (1992); cited from earlier work

Compound	passage of the blood-brain barrier [1]	incidence of cortical infarction [2]	suppression of postischemic seizure activity ([3]; 1 μg IGF-1 2 h after ischemia)	neuronal rescue (neuronal loss scores) ([3]; 1 μg IGF-1 into lateral ventricle 2 h after 30 minutes ischemia, assessed five days later)	suppression of cortical electroencephalographic activity [4]
NCC(=O)N1CCC[C@H]1C(=O)N[C@@H](CCC(=O)O)C(=O)O [GPE, gly-pro-glu]	can cross the blood-brain barrier				
C[C@]12N[C@H](Cc3ccccc31)c1ccccc12 [MK801, reference compound]		50%			
insulin-like growth factor 1 [IGF-1]		33%	did not suppress the postischemic seizure activity	rescued neurons	did not suppress cortical electroencephalographic activity
